The source of these data is patent US8263589B2, “Inhibitors of protein aggregation” (Wista Laboratories Ltd., priority 2006, dated 2012).

Read-outs that look alike come from different tables or passages of the source. A value given as a limit tells only on which side of the number the result lay.

Data set [1] addresses T1, assembled tsyn (core aggregation domain of α-synuclein, amino acids 31-109) (Homo sapiens, UniProt P37840).
T1 construct: The core aggregation domain of α-synuclein (amino acids 31-109) was expressed with an N-terminal polyhistidine tag; polyhistidine (N); made in house; host or cells: E. coli
Kind of data set: Fluorescence assay of disruption of assembled tsyn (thioflavine T / primulin). The class given is biochemical. On the procedure:
(§1) α-Synuclein proteins (tsyn or fsyn) were incubated at 37° C. for the times indicated in Figure legends with mixing to induce fibril formation. In some cases, 50 μg/ml heparin was included to enhance fibril formation.
(§2) Samples of 10 μl were then diluted to 100 μl with water, plus thioflavine T or primulin at 1 μM, or 0.2 or 5 μM in some cases. Fluorescence excitation spectra were measured in 96 well plates in a Varian Carey Eclipse Fluorescence Spectrophotometer, with the emission wavelength at 480 nm. Excitation spectra were corrected for the signal measured without tsyn and the peak signal measured from the spectra. The data were normalised to the value measured without compound and P50 values measured from plots of normalised fluorescence against concentration of compound.
The effect of the compounds on thioflavine T and primulin fluorescence could be due to competition for the fluorescence ligand rather than disruption of the fibrils. To test this, the experiment was done at three different concentrations of fluorophore, since the P50 will be dependent on fluorophore concentration only if the effect is due to competition.

The target of data set [2] is T2, α-synuclein (fsyn binding to solid phase tsyn) (Homo sapiens, UniProt P37840).
T2 construct: full-length α-synuclein (fsyn) was added in the aqueous phase; The core aggregation domain of α-synuclein (amino acids 31-109) was expressed with an N-terminal polyhistidine tag; polyhistidine (N); made in house; host or cells: E. coli
Kind of data set: Solid phase ELISA assay for synuclein-synuclein binding. As to the method:
A solid phase assay was used to measure self-association of α-synuclein. tsyn diluted in carbonate buffer (pH 8.5) was bound to the assay plate, and full-length α-synuclein (fsyn) was added in the aqueous phase. The aqueous phase binding buffer was 50 mM Na-phosphate, pH 6.0, 20 mM NaCl, 0.05% Tween-20, 1% fish skin gelatine.
The two α-synuclein proteins were also used in a binding assay. The tsyn is bound in the solid phase, and full-length fsyn is added in the aqueous phase. […]

Data set [3] has as its system parkinsonian tremor. The settings on record: cited from earlier work.
The target in data set [4] is α-synuclein (SSFsyn) in NIE-115 cells (Homo sapiens, UniProt P37840). Nature of the data set: Cell based assay for α-synuclein aggregation (SSFsyn in NIE-115 cells differentiated with dbcAMP, immunoblot mAb 42). The arrangement: species or system mouse. The settings on record: for EC50: ratio of α-synuclein to non-specific band falls to 50% of dbcAMP alone, immunoblot mAb 42, read-out: EC50, inhibition of FSyn expression in NIE cells differentiated with dbcAMP. As to the method: The cell based assay employed a mouse neuroblastoma cell line NIE-115 that had been engineered to express full-length α-synuclein incorporating an N-terminal signal sequence (SSfsyn) to target incorporation of the protein into the membrane (see WO02/059150). When the cells were differentiated with dibutyryl cyclicAMP (dbcAMP) (1 mM) expression of the α-synuclein protein was increased.
α-synuclein protein was detected by immunoblot using various anti-α-synuclein antibodies. These included: mAb 42 (BD Biosciences Cat No. 610787) that recognises an epitope within tsyn (residues 31-109 of α-synuclein). In addition to α-synuclein, mAb 42 also reacts non-specifically with a protein of higher molecular mass (the protein is not recognised by other anti-α-synuclein antibodies). This protein was used as an estimate of cell numbers as the level of this protein in cells correlates with cell density. Drugs were tested with these cells and an inhibitory activity (EC50) was calculated by determining the drug concentration in which the ratio of α-synuclein to the non-specific band fell to 50% of the value for cells treated with dbcAMP alone.
The timing of the addition of the dbcAMP and drug was varied and the length of time that the cells are left in the presence of drug+dbcAMP before collecting cells was also be varied.
(A western blot detects proteins with antibodies after separation by electrophoresis.)

Data set [5] deals with NIE cells.
For data set [6], the target named is T3, assembled fsyn (full-length α-synuclein) (Homo sapiens, UniProt P37840).
T3 construct: Full-length α-synuclein (syn) was expressed without a tag, and purified by ion exchange chromatography; made in house; host or cells: E. coli
Nature of the data set: Fluorescence assay of disruption of assembled fsyn (thioflavine T / primulin). The class given is biochemical. The settings on record: assembled 47 h with heparin, compound 1 h, read-out: P50 for inhibition of α-synuclein-dependent fluorescence. On the procedure:
as §1, §2

Setting [7] is: tsyn-16 assembled with heparin (50 μg/ml), primulin 1 μM, mean ± SEM (n), read-out: P50 (μM) using primulin.
[8] abbreviates: tsyn-16 assembled with heparin (50 μg/ml), thioflavine T 1 μM, mean ± SEM (n), read-out: P50 (μM) using thioflavone T.
Setting [9] is: 1 μM tsyn-16 (solid phase), 5 μM fsyn-20 (aqueous phase), 50 mM sodium phosphate pH 6.0, 20 mM NaCl, read-out: B50 (μM) in α-synuclein binding assay.
The mark [10] stands for this setting: assembled tsyn, primulin 0.2 μM, read-out: P50 (mean), effect of fluorophore concentration.
The mark [11] stands for this setting: assembled tsyn, primulin 1.0 μM, read-out: P50 (mean), effect of fluorophore concentration.
The mark [12] stands for this setting: assembled tsyn, primulin 5.0 μM, read-out: P50 (mean), effect of fluorophore concentration.
Setting [13] is: assembled tsyn, thioflavine T 0.2 μM, read-out: P50 (mean), effect of fluorophore concentration.
Where [14] appears, read: assembled tsyn, thioflavine T 1.0 μM, read-out: P50 (mean), effect of fluorophore concentration.
Setting [15] is: assembled tsyn, thioflavine T 5.0 μM, read-out: P50 (mean), effect of fluorophore concentration.
The mark [16] stands for this setting: tsyn-13, primulin 1 μM, assembled 20 h with heparin, compound 1 h, read-out: P50 for inhibition of α-synuclein-dependent fluorescence.
Setting [17] is: tsyn-13, thioflavine T 1 μM, assembled 20 h with heparin, compound 1 h, read-out: P50 for inhibition of α-synuclein-dependent fluorescence.

Take `O=c1c(O)c(-c2cc(O)c(O)c(O)c2)oc2cc(O)ccc12` [Robinetin, reference compound]: the IC50 in data set [1] (setting [7]) came to 27.6 µM; in data set [1] (setting [8]), 21.1 µM; in data set [2] (setting [9]), 39.2 µM.

Take Thionine: the IC50 in data set [1] (setting [7]) was found to be 23 ± 2.2 µM; in data set [1] (setting [8]) it was 3.8 ± 0.3 µM; in data set [2] (setting [9]), 32.2 ± 11.7 µM. Moreover, the “effect on Parkinsonian tremor” value in data set [3] (4 individuals, MTC intravenously 1 or 2 mg/kg) is recorded as “gave no result”. The “activity in the synuclein-synuclein binding assay” value in data set [2] was “active”.

On to `CCc1cc(N(CC)CC)cc2[s+]c3cc(N(CC)CC)cc(CC)c3nc12` [DEETC, 1,9-Diethyl-ethyl-thioninium chloride], for which the “activity in the synuclein-synuclein binding assay” value in data set [2] is “active”. Also, the IC50 in data set [2] (setting [9]) turned out to be 0.4 µM. In addition, in data set [4], the EC50 came out at 0.004 ± 0.001 µM. The same compound showed an LD50 in data set [5] of 1.0 µM.

Consider `CCN(CC)c1ccc2nc3ccc(N(CC)CC)cc3[s+]c2c1` [ETC, Ethyl-thioninium chloride], for which the IC50 was found to be 41.7 µM in data set [1] (setting [10]); 34 µM in data set [1] (setting [11]); 32.3 µM in data set [1] (setting [12]); 3.2 µM in data set [1] (setting [13]); 9 µM in data set [1] (setting [14]); 17.6 µM in data set [1] (setting [15]). Further, the IC50 in data set [1] (setting [16]) was determined as 24.1 µM; in data set [1] (setting [17]) it was 30.3 µM; in data set [1] (setting [7]), 26 ± 6 µM; in data set [1] (setting [8]) it was 7.3 ± 3.8 µM; in data set [6] (fsyn-14, primulin) it was 30.6 µM; in data set [6] (fsyn-14, thioflavine T) it was 25.3 µM. Further, in data set [2] (setting [9]), the IC50 is 3.8 ± 0.3 µM. Besides, the “activity in the synuclein-synuclein binding assay” value in data set [2] is “active”. In addition, the EC50 in data set [4] worked out at 0.08 ± 0.02 µM. Moreover, in data set [5], the LD50 was found to be 38 µM.

For the compound `CCc1cc(N(C)C)cc2[s+]c3cc(N(C)C)cc(CC)c3nc12` [DEMTC, 1,9-Diethyl-methyl-thioninium chloride], the “activity in the synuclein-synuclein binding assay” value in data set [2] is recorded as “active”. Moreover, the IC50 in data set [2] (setting [9]) worked out at 0.8 ± 0.4 µM. This compound had an LD50 in data set [5] of 3 µM.

Take `CN(C)c1ccc2nc3ccc(N(C)C)cc3[s+]c2c1` [MTC, methyl-thioninium chloride]: the IC50 worked out at 41.7 µM in data set [1] (setting [10]); 35.1 µM in data set [1] (setting [11]); 31.2 µM in data set [1] (setting [12]); 11.6 µM in data set [1] (setting [13]); 12.7 µM in data set [1] (setting [14]); 20.2 µM in data set [1] (setting [15]). Moreover, the IC50 amounted to 12.9 µM in data set [1] (setting [16]); 18.5 µM in data set [1] (setting [17]); 30.4 ± 3 µM in data set [1] (setting [7]); 15.4 ± 3.7 µM in data set [1] (setting [8]); 23.5 µM in data set [6] (fsyn-14, primulin); 3.8 µM in data set [6] (fsyn-14, thioflavine T). In data set [2] (setting [9]), the IC50 was found to be 131 ± 15 µM. Further, the “tolerability of oral administration” value in data set [3] (oral 8 grains (=518 mg)/day) is “discontinued due to side effects”. Moreover, the “activity in the synuclein-synuclein binding assay” value in data set [2] was “active”.

In the case of `O=c1c(O)c(-c2ccc(O)c(O)c2)oc2cc(O)ccc12` [Fisetin, reference compound], the IC50 in data set [2] (setting [9]) was 88.2 µM.

Take `CN(C)c1ccc2nc3ccc(N)cc3[s+]c2c1` [Azure A, reference compound]: the IC50 in data set [1] (setting [7]) was 17.9 ± 2 µM; in data set [1] (setting [8]), 3.8 ± 0.9 µM; in data set [2] (setting [9]) it was greater than 500 µM. Besides, the “activity in the synuclein-synuclein binding assay” value in data set [2] was “inactive”. Also, in data set [4], the concentration giving a half-maximal response (EC50) was determined as 0.32 µM. In data set [5], the LD50 is 8.8 µM.

Turning to `O=c1c(O)c(-c2ccc(O)c(O)c2)oc2ccccc12` [3,3′,4′-Trihydroxy-flavone, reference compound], the IC50 in data set [2] (setting [9]) turned out to be 43.1 µM.

Consider `CCN(CC)c1cc(C)c2nc3c(C)cc(N(CC)CC)cc3[s+]c2c1` [DMETC], for which the figures for the IC50 in data set [1] (setting [7]), in data set [1] (setting [8]) and in data set [2] (setting [9]) were 5 ± 0.9 µM, 0.9 ± 0.2 µM and 0.5 ± 0.1 µM, respectively. Moreover, the “activity in the synuclein-synuclein binding assay” value in data set [2] is listed as “active”. The concentration for a half-maximal effect (EC50) in data set [4] was 0.05 ± 0.04 µM. In data set [5], this compound displayed an LD50 of 6 µM.

In the case of `Cc1c(-c2ccccc2)oc2cc(O)ccc2c1=O` [7-hydroxy-3-methyl-flavone, reference compound], the IC50 in data set [2] (setting [9]) is 141 µM.

As to `COc1cc(O)c2c(=O)c(O)c(-c3ccc(O)c(O)c3)oc2c1` [Rhamnetin, reference compound], the IC50 came out at 34.7 µM in data set [1] (setting [7]), 39.4 µM in data set [1] (setting [8]) and 11.4 ± 9.7 µM in data set [2] (setting [9]). The “inhibitory activity in the cell based assay” value in data set [4] (NIE-115 SSFsyn cells with dbcAMP) was “inhibitory”. In addition, the LD50 in data set [5] came out at 31 µM.

With `Cc1cc2nc3ccc(N(C)C)cc3[s+]c2cc1N` [Tolonium chloride, Tolonium Chloride], the results for the IC50 in data set [1] (setting [7]), in data set [1] (setting [8]) and in data set [2] (setting [9]) were 8.8 ± 3.3 µM, 1.5 ± 0.2 µM and 3.3 ± 0.3 µM, respectively. Moreover, the “activity in the synuclein-synuclein binding assay” value in data set [2] was “active”. For the same compound, in data set [5], the LD50 is 1.2 µM.

Take `Cc1cc(N(C)C)cc2[s+]c3cc(N(C)C)cc(C)c3nc12` [DMMTC, 1,9-Dimethyl-methyl-thioninium chloride]: the IC50 was found to be 20.7 ± 7.8 µM in data set [1] (setting [7]), 0.2 µM in data set [1] (setting [8]) and 4.9 µM in data set [2] (setting [9]). Also, the “activity in the synuclein-synuclein binding assay” value in data set [2] is “active”. The EC50 in data set [4] was found to be 0.1 ± 0.02 µM. The LD50 in data set [5] turned out to be 1.2 µM.

Regarding `O=c1cc(-c2ccccc2)oc2cc(O)c(O)c(O)c12` [Baicalein, reference compound], the IC50 in data set [1] (setting [7]) was 28.2 µM; in data set [1] (setting [8]), 47.6 µM; in data set [2] (setting [9]), 2.5 µM.

Regarding `COc1cc(-c2oc3cc(O)ccc3c(=O)c2O)ccc1O` [Geraldol, reference compound], the IC50 in data set [1] (setting [7]) was greater than 50 µM; in data set [1] (setting [8]), greater than 50 µM; in data set [2] (setting [9]), 60.8 µM.

On to `O=c1cc(-c2ccccc2)oc2cc(O)ccc12` [7-Hydroxy-flavone, reference compound], for which the IC50 is greater than 50 µM in data set [1]; greater than 50 µM in data set [1] (P50 (μM) using primulin, tsyn-16 assembled with heparin (50 μg/ml), primulin 1 μM, mean ± SEM (n)); 35.3 µM in data set [2].

For `CNc1ccc2nc3ccc(N(C)C)cc3[s+]c2c1` [Azure B, reference compound], in data set [2], the “activity in the synuclein-synuclein binding assay” value is “inactive”. Further, in data set [2] (setting [9]), the IC50 was greater than 500 µM. Further, in data set [4], the EC50 came out at 0.25 µM. The compound further returned an LD50 in data set [5] of 0.8 µM.

As a reminder, the EC50 is the concentration giving half of the maximal effect.
